Values joined by “and” are separate entries in the source; they are usually repeats but may differ in a detail not shown here. Identical values can stand only once.
Test system: BDF1 mice, Adenocarcinoma 755 s.c., tumor weight T/C
Assay: NCI In Vivo Anticancer Drug Screen. Data for tumor model Adenocarcinoma 755 (subcutaneous) in B6D2F1 (BDF1) mice
Conditions: endpoint: mean tumor weight, schedule: Q01DX011 (ip), higher = larger tumour
Procedure, shortened: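 Transplantable tumor implanted; mice dosed with compound or vehicle; survival or tumor size recorded; ratio of treated to vehicle control reported.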

[1] = dose: 25.0 mg/kg/injection, vehicle: methylcellulose (MC)
[2] = dose: 75.0 mg/kg/injection, vehicle: methylcellulose (MC)
[3] = dose: 125.0 mg/kg/injection, vehicle: methylcellulose (MC)
[4] = dose: 250.0 mg/kg/injection, vehicle: methylcellulose (MC)
[5] = dose: 50.0 mg/kg/injection, vehicle: methylcellulose (MC)
[6] = dose: 100.0 mg/kg/injection, vehicle: methylcellulose (MC)
[7] = dose: 225.0 mg/kg/injection, vehicle: methylcellulose (MC)

With `CCCCNS(=O)(=O)c1ncnc2nc[nH]c12` the T/C (dose: 2.0 mg/kg/injection, vehicle: carboxymethylcellulose (CMC)) was 115 % of control, the T/C (dose: 6.0 mg/kg/injection, vehicle: carboxymethylcellulose (CMC)) was 44 % of control and the T/C (dose: 12.0 mg/kg/injection, vehicle: carboxymethylcellulose (CMC)) was 13 % of control.

In the case of `CNc1ncnc2c1ncn2C1CCCO1` (configuration not stated), the T/C (dose: 50.0 mg/kg/injection, vehicle: saline) is reported as 119 % of control, the T/C (dose: 100.0 mg/kg/injection, vehicle: saline) is reported as 86 % of control and the T/C (dose: 200.0 mg/kg/injection, vehicle: saline) is reported as 51 % of control.

In the case of `Brc1ncc2[nH]cnc2n1`, the T/C [1] is reported as 79 % of control and the T/C [2] is reported as 75 % of control.

In the case of `Cn1c(=O)c2c(ncn2CC(=O)O)n(C)c1=O`, the T/C (dose: 63.0 mg/kg/injection, vehicle: methylcellulose (MC)) is reported as 106 % of control, the T/C [3] is reported as 89 % of control and the T/C [4] is reported as 112 % of control. The T/C (dose: 500.0 mg/kg/injection, vehicle: methylcellulose (MC)) was 117 % of control.

With `Cn1cnc2c(SCc3ccccc3)ncnc21` the T/C (dose: 63.0 mg/kg/injection, vehicle: carboxymethylcellulose (CMC)) was 3 % of control, the T/C (dose: 126.0 mg/kg/injection, vehicle: carboxymethylcellulose (CMC)) was 1 % of control and the T/C (dose: 252.0 mg/kg/injection, vehicle: carboxymethylcellulose (CMC)) was 1 % of control.

With `CCn1cnc2c(SC)nc(N)nc21` the T/C (dose: 6.25 mg/kg/injection, vehicle: methylcellulose (MC)) was 74 % of control, the T/C (dose: 12.5 mg/kg/injection, vehicle: methylcellulose (MC)) was 30 % of control and the T/C [1] was 31 % of control. For the same compound, the T/C [5] was 7 % of control and the T/C [6] was 1 % of control.

For `Cn1c[n+](C2OC(CO)C(O)C2O)c2nc([O-])[nH]c(=O)c21` (configuration not stated), the T/C [1] was 65 % of control, the T/C [2] was 103 % of control and the T/C [7] was 44 % of control.

With `CCC(C)Cn1cnc2c(Sc3c([N+](=O)[O-])ncn3C)nc(N)nc21` (configuration not stated) the T/C (dose: 11.0 mg/kg/injection, vehicle: methylcellulose (MC)) was 58 % of control, the T/C (dose: 33.0 mg/kg/injection, vehicle: methylcellulose (MC)) was 10 % of control and the T/C [6] was 1 % of control.

With `O=C(C1C(c2ccccc2)N1Cc1ccccc1)C1C(c2ccccc2)N1Cc1ccccc1` (configuration not stated) the T/C [1] was 47 % of control, the T/C [5] was 77 % of control and the T/C [6] was 66 % of control.

With `Cc1ccc(/C=N/Nc2nc3c(c(=O)n(C)c(=O)n3C)n2C)cc1` the T/C [1] was 77 % of control, the T/C [2] was 60 % of control and the T/C [7] was 39 % of control.

For `N#Cc1cn(C2OC(CO)C(O)C2O)c2ncnc(N)c12` (configuration not stated), the T/C (dose: 0.15 mg/kg/injection, vehicle: carboxymethylcellulose (CMC)) was 72 % of control.

`CCCCCCCCOP(=O)(N1CC1)N1CC1` was tested, and the T/C (dose: 0.1 mg/kg/injection, vehicle: saline) was 75 % of control and 79 % of control, the T/C (dose: 0.2 mg/kg/injection, vehicle: saline) was 65 % of control and 80 % of control and the T/C (dose: 1.0 mg/kg/injection, vehicle: saline) was 29 % of control. The T/C (dose: 2.0 mg/kg/injection, vehicle: saline) was 57 % of control and 66 % of control and the T/C (dose: 4.5 mg/kg/injection, vehicle: saline) was 56 % of control and 66 % of control.

In the case of `Nc1nc(=S)cc(Nc2ccccc2Cl)[nH]1`, the T/C (dose: 31.0 mg/kg/injection, vehicle: methylcellulose (MC)) is reported as 101 % of control, the T/C (dose: 62.0 mg/kg/injection, vehicle: methylcellulose (MC)) is reported as 156 % of control and the T/C [3] is reported as 93 % of control. For the same compound, the T/C [4] was 122 % of control.

With `CCCCN(C)N=Nc1ccc(S(N)(=O)=O)cc1` the T/C (dose: 4.0 mg/kg/injection, vehicle: carboxymethylcellulose (CMC)) was 91 % of control, the T/C (dose: 8.0 mg/kg/injection, vehicle: carboxymethylcellulose (CMC)) was 90 % of control and 77 % of control and the T/C (dose: 31.0 mg/kg/injection, vehicle: carboxymethylcellulose (CMC)) was 33 % of control. For the same compound, the T/C (dose: 32.0 mg/kg/injection, vehicle: carboxymethylcellulose (CMC)) was 108 % of control and 84 % of control, the T/C (dose: 62.0 mg/kg/injection, vehicle: carboxymethylcellulose (CMC)) was 42 % of control and the T/C (dose: 93.0 mg/kg/injection, vehicle: carboxymethylcellulose (CMC)) was 55 % of control.

In the case of `CCN(CC)C(=O)CSc1ncnc2nc[nH]c12`, the T/C (dose: 6.0 mg/kg/injection, vehicle: methylcellulose (MC)) is reported as 91 % of control, the T/C [1] is reported as 43 % of control and the T/C (dose: 31.25 mg/kg/injection, vehicle: methylcellulose (MC)) is reported as 6 % of control. For the same compound, the T/C (dose: 62.5 mg/kg/injection, vehicle: methylcellulose (MC)) was 4 % of control.

— PubChem BioAssay AID180 (DTP/NCI, 2004)
